Results: patent US20040097408A1, “Compounds regulating cell proliferation and differentiation” (priority 2001, published 2004)
Several values for one entry are separate records, joined by “and”; a condition that tells them apart may be missing. Equal values may be shown once.

Legend:
[1] = test system: isolated mouse liver mitochondria; test: mitochondrial membrane potential by F16 fluorescence; format: biochemical; settings: 1 μM and 50 μM F16
Procedure: Mitochondria were isolated from liver of Balb/c7 mice by standard differential centrifugation, and resuspended in isolation buffer (0.2 M sucrose, 10 mM Tris-MOPS pH 7.4, 0.1 mM EGTA-Tris, 0.1% delipidated BSA) (Costantini et al. (1995) Toxicology (99) 77-88). Protein concentration was determined by Bradford assay. For swelling determination, changes in side scatter at 545±2.5 nm of a 0.5 mg/ml suspension of mitochondria in experimental buffer (125 mM KCl, 10 mM Tris-MOPS pH 7.4, 1 mM Pi, 5 mM glutamate, 2.5 mM malate, 10 μM EGTA-Tris, pH 7.4) were monitored by using LS-50B spectrofluorimeter. To monitor changes in mitochondrial membrane potential, the intrinsic potentiometric properties of F16 were used. Mitochondria (0.5 mg/ml) were incubated in experimental buffer with the indicated concentrations of F16 and changes in F16 fluorescence intensity were measured, using a LS-50B spectrofluorimeter at 25° C., with excitation and emission wavelengths set at 415±2.5 nm and 520±5 nm, respectively. All reactions were performed at 25° C. and the instrument was equipped with magnetic stirring.
The fluorescent properties of F16 were used for this purpose. It was determined whether the fluorescence of a 1 μM solution of F16 changed in response to mitochondrial energization and depolarization. […] Preincubation of mitochondria with the PTP inhibitor CsA only partially blunted this effect.

[2] = test system: EpH-A6 cells; test: cell cycle phases by BrdU incorporation / FACS; format: cell-based, mouse; settings: 3 μM F16, 30-36 hr, FIG. 5
Procedure: The percentage of cells in the different phases of the cell cycle was assessed by measuring BrdU incorporation into the DNA of the cells. BrdU incorporation into DNA of untreated or F16 treated (3 μM/30-36 hr) EpH-EV and EpH-A6 cells was assessed by FACS as follows. After F16 or mock treatment, the cells were pulsed with BrdU (20 μM) for 1 hour and then fixed in 70% ethanol at −20° C. overnight. Next morning cells were washed twice with 1×PBS and the DNA was denatured by incubation of the cells in 2N HCl/0.5% Triton X-100. The cells were then washed twice in 0.1M Na2B2O7, and once in PBS. The cells were resuspended in PBS, incubated with 20 μL of anti-BrdU/FITC(Becton Dickinson) for 1 hour and subsequently washed with 1×PBS and resuspended in PBS. RNA was digested with RNaseA (1 μL of 10 mg/mL stock) at 37° C. for 30 minutes. Finally, the cells were diluted with 1 mL of 5 μg/mL propidium iodide/PBS and incubated on ice for 15 minutes. The labeled cells were analyzed using the FACSCalibur (Becton Dickinson).

[3] = test system: EpH-A6 cells; test: tumor growth of EpH-A6 cells injected subcutaneously in nude mice; format: in vivo, mouse; design: Tumor weight, right flank / Tumor weight, left flank: unit not given here; settings: for Tumor weight, left flank / Tumor weight, right flank: individual nude mice, F16 20 mg/kg intraperitoneally twice a day, 20 mg/kg
Procedure: Twenty nude mice of 8-10 weeks of age were injected subcutaneously with 10^6 EpH-A6 cells in the left and right flanks. Three days after the cell injection, a 20 mg/kg dose of F16 (40% DMSO/60% PBS) was injected intraperitoneally twice a day to a group of 10 mice, and an equivalent dose of vehicle to the remaining 10 mice (placebo mice). After 10 days of treatment, tumors were removed from all mice and weighted. Tumor tissue was used for FACS analysis, pathology, and some were stored at −70° C. until further processing.

[4] = test system: EpH4-EV cells; test: uptake/retention of F16 by fluorescence microscopy; format: cell-based, mouse; settings: 3 μM F16, 24 hours
Procedure: (§1) The following cell lines were used in this Example: EpH4-A6 (Neu^T); EpH4-EV; Neu-initiated mouse tumor cell lines NF980, NAF and nNeu; Ras-initated tumor cell lines SH1.1 and AC816; a Myc-initiated tumor cell line 16MB9a; and normal mammary epethileal cells HC11, NuMg and EpH4. The cells were grown on 60 mm plates and incubated with medium alone or medium containing 3 μM F16 for 24 hours at 37° C. The fluorescence signal of F16 was visualized under inverted microscope Axiovert (Zeiss) using a standard fluorescein filter set. Cells were photographed using a digital camera D1 (Nikon).

[5] = test system: 16MB9a; test: uptake/retention of F16 by fluorescence microscopy; format: cell-based, mouse; settings: 3 μM F16, 24 hours
Procedure: as §1

[6] = test system: ras- and neu-initiated tumor cell lines; test: uptake/retention of F16 by fluorescence microscopy; format: cell-based, mouse; settings: 3 μM F16, 24 hours
Procedure: as §1

[7] = test system: EpH4-A6 cells; test: uptake/retention of F16 by fluorescence microscopy; format: cell-based, mouse; settings: 3 μM F16, 24 hours
Procedure: as §1

[8] = test system: EpH4-A6 cells; test: ATP levels (ATP Bioluminescence Assay); format: cell-based, mouse; settings: 3 μM F16, 24 hr, FIG. 10
Procedure: One of the major roles of mitochondria is to supply energy to the cell. To assess alterations in mitochondrial function, ATP levels were determined in F16-treated cells by the luciferase-catalyzed ATP-dependent bioluminescent oxidation of luciferin using the ATP Bioluminescence Assay Kit (Roche). EpH4-EV and EpH4-A6 cells were grown in the absence or in the presence of 3 μM F16 for 15 hr and 24 hr. As a control A6 were treated with 5 μM FCCP (Sigma). Cells were then harvested, counted and equivalent numbers used for each determination, according to manufacturer's procedure. Each determination was done in triplicate, and the entire experiment was performed twice.

[9] = FACS analysis of F16 in tumor cell populations; format: in vivo, mouse; settings: tumors of F16-treated nude mice
Procedure: Several tumor cell populations from F16 treated and untreated mice were analyzed by FACS, in order to determine the presence of F16 in the cells.

## C[n+]1ccc(/C=C/c2c[nH]c3ccccc23)cc1.[I-] [F16]
[1]
  mitochondrial depolarization: directly causes mitochondrial depolarization
[2]
  percentage of cells in G1 phase: increase
  percentage of cells in the S phase: dramatic decrease
[3]; Experiment #1, 10 days
  Tumor weight, left flank: 0.1131 and 0.0293 and 0.1365 and 0.021 and 0.1463 and 0.1127 and 0.1186 and 0.097 and 0.1163 and 0.1174
  Tumor weight, right flank: 0.214 and 0.0666 and 0.1984 and 0.1597 and 0.1645 and 0.1127 and 0.2314 and 0.2412 and 0.2408 and 0.2174
[3]; Experiment #2, 10 days
  Tumor weight, left flank: 0.054 and 0.4294 and 0.3368 and 0.041 and 0.2375 and 0.2087 and 0.1809 and 0.0454 and 0.1417 and 0
  Tumor weight, right flank: 0.022 and 0.632 and 0.2078 and 0.1798 and 0.1063 and 0.2621 and 0.1315 and 0.1971 and 0.3451 and 0
[3]; F16 20 mg/kg twice a day, 10 days
  difference in tumor size relative to the control mice: 2-3 fold
[3]; at least some F16 treated tumors compared to untreated tumors
  cells undergoing mitosis in tumors (pathology): decrease in number of cells undergoing mitosis
[4]
  uptake/retention of F16 (fluorescence): do not show any uptake/retention
[5]
  uptake/retention of F16 (fluorescence): does not show fluoresence
[6]
  uptake/retention of F16 (fluorescence): very intense fluorescent green punctuated staining
[7]
  uptake/retention of F16 (fluorescence): very intense fluorescent green punctuated staining
[8]
  ATP pool: significant depletion in the ATP pool
[9]
  presence of F16 in tumor cells (fluorescent signal, FACS): delivered to the tumor cell mass
